{"source": "ChEMBL document CHEMBL1128912", "about": "“DNA cleavage of novel propargylic sulfones. Enhancement of potency via intercalating interaction” (Bioorg Med Chem Lett, 1996)", "tested_on": "KB", "experiment": "Cytotoxicity was evaluated by using KB/P cancer cells", "format": "functional, cell-based", "settings": "Homo sapiens", "note": "pIC50: −log10 of the molar value."}
{"smiles": "O=S(=O)(CC#CCCCCC#CCO)c1ccccc1", "values": [{"measurement": "pIC50", "result": 5.28}]}
